In article PMC11546340 (BMC Chemistry, 2024):
Several values for one entry are separate records, joined by “and”; a condition that tells them apart may be missing. Identical values can stand only once.

How the values were obtained:
[1] = Plasma protein binding, HT Dialysis 96-well apparatus, LC-MS/MS; type: in vitro ADME; settings: male, human, plasma, pH 7.4, Recovery (%), mean, n = 4
human plasma = test: as above; type: in vitro ADME; settings: 3 µM

O=C(O)Cc1ccccc1Nc1c(Cl)cccc1Cl [Diclofenac]
recovery at 5 h, 3 µM [1]: 94.2%
Bound (%) (human plasma; individual replicates 1-4): 99.01% and 99.07% and 98.91% and 98.99%
Recovery (%) (human plasma; individual replicates 1-4): 80.60% and 94.07% and 119.11% and 83.10%
Unbound (%) (human plasma; individual replicates 1-4): 0.99% and 0.93% and 1.09% and 1.01%
Unbound (%) (human plasma; mean, n = 4): 1.01%
